Measurements as given in US12049450B2, “Pyridyloxy-carboxylate derivative and preparation method therefor, herbicidal composition, and use” (Qingdao Kingagroot Chemical Compound Co., Ltd., priority 2018, dated 2024).

Legend:
Experiment in all cases: Post-emergence test experiment (greenhouse pot, spray at 2-3 leaf stage)
Format in all cases: in vivo
Settings in all cases: 1000 g/ha; post-emergence spray at 2-3 leaf stage; assessed after 3 weeks; fresh weight inhibition rate
[1] = system: Abutilon theophrasti
Method in brief: (§1)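 Weed seeds sown in soil-filled pots in greenhouse, sprayed at 2-3 leaf stage (2 weeks after sowing) with compound in acetone/tween-80 plus methyl oleate emulsible concentrate (1.5 L/ha) diluted in water. Fresh-weight growth inhibition scored after 3 weeks on 0-5 scale (5: >85%, 0: <5%).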

[2] = system: Digitaria sanguinalis
Method in brief: as §1

[3] = system: Galium spurium
Method in brief: as §1

[4] = system: Monochoria vaginalis
Method in brief: as §1

[5] = system: Echinochloa crusgalli
Method in brief: as §1

SMILES	Activity level (growth inhibition rate) Abutilon theophrasti [1]	Activity level (growth inhibition rate) Digitaria sanguinalis [2]	Activity level (growth inhibition rate) Galium spurium [3]	Activity level (growth inhibition rate) Monochoria Vaginalis [4]	Activity level (growth inhibition rate) Echinochloa crusgalli [5]
CC(Oc1nc(F)c(Cl)c(N)c1Cl)C(=O)OCn1cncn1 (stereo not drawn) [Compound 136]	5 (Level 5: the growth inhibition rate is greater than 85%)	5 (Level 5: the growth inhibition rate is greater than 85%)	5 (Level 5: the growth inhibition rate is greater than 85%)	5 (Level 5: the growth inhibition rate is greater than 85%)	5 (Level 5: the growth inhibition rate is greater than 85%)
CC(Oc1nc(F)c(Cl)c(N)c1Cl)C(=O)SCn1ccnn1 (stereo not drawn) [Compound 137]	5 (Level 5: the growth inhibition rate is greater than 85%)	5 (Level 5: the growth inhibition rate is greater than 85%)	5 (Level 5: the growth inhibition rate is greater than 85%)	5 (Level 5: the growth inhibition rate is greater than 85%)	5 (Level 5: the growth inhibition rate is greater than 85%)
CC(Oc1nc(F)c(Cl)c(N)c1Cl)C(=O)OCc1nnnn1C (stereo not drawn) [Compound 138]	5 (Level 5: the growth inhibition rate is greater than 85%)	5 (Level 5: the growth inhibition rate is greater than 85%)	5 (Level 5: the growth inhibition rate is greater than 85%)	5 (Level 5: the growth inhibition rate is greater than 85%)	5 (Level 5: the growth inhibition rate is greater than 85%)
CC(Oc1nc(F)c(Cl)c(N)c1Cl)C(=O)SCc1ccco1 (stereo not drawn) [Compound 139]	5 (Level 5: the growth inhibition rate is greater than 85%)	5 (Level 5: the growth inhibition rate is greater than 85%)	5 (Level 5: the growth inhibition rate is greater than 85%)	5 (Level 5: the growth inhibition rate is greater than 85%)	5 (Level 5: the growth inhibition rate is greater than 85%)
CC(Oc1nc(F)c(Cl)c(N)c1Cl)C(=O)OCc1cnco1 (stereo not drawn) [Compound 141]	5 (Level 5: the growth inhibition rate is greater than 85%)	5 (Level 5: the growth inhibition rate is greater than 85%)	5 (Level 5: the growth inhibition rate is greater than 85%)	5 (Level 5: the growth inhibition rate is greater than 85%)	5 (Level 5: the growth inhibition rate is greater than 85%)
CC(Oc1nc(F)c(Cl)c(N)c1Cl)C(=O)SCCc1cocn1 (stereo not drawn) [Compound 142]	5 (Level 5: the growth inhibition rate is greater than 85%)	5 (Level 5: the growth inhibition rate is greater than 85%)	5 (Level 5: the growth inhibition rate is greater than 85%)	5 (Level 5: the growth inhibition rate is greater than 85%)	5 (Level 5: the growth inhibition rate is greater than 85%)
CC(Oc1nc(F)c(Cl)c(N)c1Cl)C(=O)OCc1ncco1 (stereo not drawn) [Compound 143]	5 (Level 5: the growth inhibition rate is greater than 85%)	5 (Level 5: the growth inhibition rate is greater than 85%)	5 (Level 5: the growth inhibition rate is greater than 85%)	5 (Level 5: the growth inhibition rate is greater than 85%)	5 (Level 5: the growth inhibition rate is greater than 85%)
CC(Oc1nc(F)c(Cl)c(N)c1Cl)C(=O)OCc1ccno1 (stereo not drawn) [Compound 144]	5 (Level 5: the growth inhibition rate is greater than 85%)	5 (Level 5: the growth inhibition rate is greater than 85%)	5 (Level 5: the growth inhibition rate is greater than 85%)	5 (Level 5: the growth inhibition rate is greater than 85%)	5 (Level 5: the growth inhibition rate is greater than 85%)
CC(Oc1nc(F)c(Cl)c(N)c1Cl)C(=O)SCc1ccon1 (stereo not drawn) [Compound 145]	5 (Level 5: the growth inhibition rate is greater than 85%)	5 (Level 5: the growth inhibition rate is greater than 85%)	5 (Level 5: the growth inhibition rate is greater than 85%)	5 (Level 5: the growth inhibition rate is greater than 85%)	5 (Level 5: the growth inhibition rate is greater than 85%)
CC(Oc1nc(F)c(Cl)c(N)c1Cl)C(=O)OCc1cnoc1 (stereo not drawn) [Compound 146]	5 (Level 5: the growth inhibition rate is greater than 85%)	5 (Level 5: the growth inhibition rate is greater than 85%)	5 (Level 5: the growth inhibition rate is greater than 85%)	5 (Level 5: the growth inhibition rate is greater than 85%)	5 (Level 5: the growth inhibition rate is greater than 85%)
Cc1noc(C)c1COC(=O)C(C)Oc1nc(F)c(Cl)c(N)c1Cl (stereo not drawn) [Compound 147]	5 (Level 5: the growth inhibition rate is greater than 85%)	5 (Level 5: the growth inhibition rate is greater than 85%)	5 (Level 5: the growth inhibition rate is greater than 85%)	5 (Level 5: the growth inhibition rate is greater than 85%)	5 (Level 5: the growth inhibition rate is greater than 85%)
CC(Oc1nc(F)c(Cl)c(N)c1Cl)C(=O)OCCc1nnco1 (stereo not drawn) [Compound 148]	5 (Level 5: the growth inhibition rate is greater than 85%)	5 (Level 5: the growth inhibition rate is greater than 85%)	5 (Level 5: the growth inhibition rate is greater than 85%)	5 (Level 5: the growth inhibition rate is greater than 85%)	5 (Level 5: the growth inhibition rate is greater than 85%)
CC(Oc1nc(F)c(Cl)c(N)c1Cl)C(=O)SCc1nnco1 (stereo not drawn) [Compound 149]	5 (Level 5: the growth inhibition rate is greater than 85%)	5 (Level 5: the growth inhibition rate is greater than 85%)	5 (Level 5: the growth inhibition rate is greater than 85%)	5 (Level 5: the growth inhibition rate is greater than 85%)	5 (Level 5: the growth inhibition rate is greater than 85%)
CC(Oc1nc(F)c(Cl)c(N)c1Cl)C(=O)SC(C)c1ncon1 (stereo not drawn) [Compound 150]	5 (Level 5: the growth inhibition rate is greater than 85%)	5 (Level 5: the growth inhibition rate is greater than 85%)	5 (Level 5: the growth inhibition rate is greater than 85%)	5 (Level 5: the growth inhibition rate is greater than 85%)	5 (Level 5: the growth inhibition rate is greater than 85%)
CC(Oc1nc(F)c(Cl)c(N)c1Cl)C(=O)OCc1ncno1 (stereo not drawn) [Compound 151]	5 (Level 5: the growth inhibition rate is greater than 85%)	5 (Level 5: the growth inhibition rate is greater than 85%)	5 (Level 5: the growth inhibition rate is greater than 85%)	5 (Level 5: the growth inhibition rate is greater than 85%)	5 (Level 5: the growth inhibition rate is greater than 85%)
